Data taken from patent US9353048B2, “Compound as KCNQ potassium channel agonist, preparation method therefor and use thereof” (SHANGHAI INSTITUTE OF MATERIA MEDICA, CHINESE ACADEMY OF …, priority 2011, dated 2016).
Where a name gives a salt, the structure may show the parent alone. Read-outs that look alike come from different tables or passages of the source.

Experiments:
KCNQ channels = assay: Whole-cell voltage-clamp electrophysiological recording in CHO cells transfected with KCNQ channels; assay type: cell-based; settings: for I/I0: activation multiple, maximum induced current at −10 mV testing voltage after administration (10 μM) vs before, >1 activating, <1 inhibiting; for ΔV1/2: shift of V1/2 of current activation curve, negative sign = left-ward shift, CHO cells
Procedure: The formulation of culture fluid for Chinese hamster […] (CHO) (Culture Collection of Chinese Academy of Sciences): 50/50 DMEM/F-12 (Cellgro, Mamassas, Va.), 10% fetal bovine serum (FBS) (Gibco, Australia) and 2 mM […] (Invitrogen). […] Lipofectamine2000™ agent (Invitrogen) was used for Transfection according to the protocol thereof. […] After cotransfection with GFP (green fluorescent protein), transfected cells could be determined under a fluorescence microscopy.
Whole-cell voltage-clamp recording was performed by using Axopatch-200B amplifier (Molecular Devices, Sunnyvale, Calif.) at room temperature. Borosilicate glass capillary tubes (World Precision Instruments, Sarasota, Fla.) were drawn into electrodes. The electric resistance of the electrodes filled with an intracellular fluid is 3 to 5 MΩ. […] During the recording, an extracellular fluid was continuously perfused by using a BPS perfusion system (ALA Scientific Instruments, Westburg, N.Y.). The formulation of the extracellular fluid was as follows: 140 mM NaCl, 5 mM KCl, 2 mM CaCl2, 1.5 mM MgCl2, 10 mM HEPES and 10 mM glucose (the pH value of the extracellular fluid was adjusted to 7.4 with NaOH). […] Resistors were connected in series to compensate 60 to 80% of signal loss. At present, multivoltage scheme was generally adopted, wherein the clamp voltage was set at −100 mV. Current was induced in cells by a series of 2000 ms stimulating voltage (from −90 mV up to +50 mV, with interval of 10 mV).
In the following table, V1/2 is the voltage at which 50% of cells were activated, ΔV1/2 is amount of a left-ward shift of V1/2, negative sign (−) represents a left-ward shift of the current activation curve and positive sign (+) represents a right-ward shift of the curve. I/I0 is the activation multiple, wherein, I0 is the maximum induced current produced under stimulation of −10 mV testing voltage, I is the maximum induced current produced under stimulation of −10 mV testing voltage after administration (10 μM), I/I0>1 represents activating activity, and I/I0<1 represents inhibiting activity. N is the number of tested cells. NT represents non-tested.

[1] = test system: Convulsion Induced by Pentylenetetrazole (PTZ); assay: Convulsion induced by pentylenetetrazole (PTZ), compounds by gastric lavage, C57BL/6J mice; assay type: in vivo; settings: 30 mg/kg gastric lavage
Procedure: The compounds to be tested were administrated to animals by gastric lavage (30 mg/kg); one hour later, pentylenetetrazole was administrated by subcutaneous injection (PTZ 80 mg/kg); and response of animals were observed within a period of 60 min.

[2] = Solubility in water (treatment of samples)
[3] = Distribution of K20.2HCl and K21.2HCl in mice's plasma and brain tissue; assay type: in vivo, KM mice; settings: for Kp: brain, read-out: concentration of prototype drug in brain tissue relative to plasma
From the text: Two hours after administration, animal were fed uniformly. Specific arrangement was as following table.
Then the residual liquid was absorbed to dryness.

[4] = test system: Animal Models Induced by PTZ (Pentylenetetrazole); assay: PTZ test, compounds by intraperitoneal injection, KM mice; assay type: in vivo; settings: intraperitoneal injection, same dosage, PTZ and MES tests; formate dihydrochloride
Procedure: Compounds to be tested were administrated by intraperitoneal injection (10 mg/kg, 5 mg/kg, 2.5 mg/kg, 0.1 ml/10 g).

[5] = test system: Animal Models Induced by MES; assay: MES test, compounds orally administrated (gastric lavage), KM mice; assay type: in vivo; settings: gastric lavage; formate dihydrochloride
Procedure: One time of electrical stimulation was applied to animals through ear clip electrodes, and a convulsion characterized by a tonic hind limb extension was observed. One day before the test, animals were screened in the above procedure to record the values of MES.
1 hour later, MES was applied according to parameters set the last day, and response of animals were observed and recorded immediately.

[6] = test system: Animal Models Induced by PTZ; assay: PTZ test, compounds orally administrated (gastric lavage), KM mice; settings: gastric lavage; formate dihydrochloride
Procedure: Response of animals were observed immediately and recorded within a period of 1 h.

[7] = K21.2HCl 5 mg/kg gastric lavage

SMILES | I/I0 (KCNQ channels) | ΔV1/2 (KCNQ channels) [mV] | further results
C#CCN(Cc1ccc(F)cc1)c1ccc(NC(=O)OC)c(NC(=O)OC)c1 [Compound K22, methyl 2-(methoxycarbonyl-imino)-4-(N-parafluorobenzyl-N-propargyl-imino)-aniline formate] | 2.10 ± 0.35 | −27.31 ± 3.9 | 
C#CCN(Cc1ccc(F)cc1)c1ccc(NC(=O)OCc2ccccc2)cc1 [Compound K4] | 2.09 ± 0.25 | −11.5 ± 2.0 | 
COC(=O)Nc1ccc(NCc2ccc(F)cc2)cc1 [Compound K1] | 2.84 ± 0.08 | −8.1 ± 3.1 | Latency period of clonus ([1]; PTZ 80 mg/kg s.c. 1 h later): 250 ± 114 s; Latency period of whole-body tonic seizures ([1]; PTZ 80 mg/kg s.c. 1 h later): 1785 ± 408 s; Mortality rate ([1]; PTZ 80 mg/kg s.c. 1 h later): 3/10; Incidence rate of convulsion ([1]; PTZ 80 mg/kg s.c. 1 h later, observed 60 min): 4/10; solubility in water (in words) [2]: can not be easily dissolved in water
C#CCN(Cc1ccc(F)c(C(F)(F)F)c1)c1ccc(F)c(NC(=O)OC)c1 [Compound K11] | 2.24 ± 0.36 | −15.7 ± 1.0 | anti-convulsive effect (in words) ([1]; PTZ-induced convulsion): comparable anti-convulsive effect
CCCCCOC(=O)Nc1ccc(N(Cc2ccc(F)cc2)C(=O)OCCCCC)cc1 [Compound K6] | 1.24 ± 0.02 | −1.6 ± 3.0 | 
C=CCN(Cc1ccc(F)cc1)c1ccc(NC(=O)OCC)c(N)c1 [Compound K20, ethyl 2-amino-4-(N-parafluorobenzyl-N-allyl-imino)-aniline formate] | 1.75 ± 0.12 | −49.7 ± 3.4 | Kp ([3]; male, KM, mouse, oral, 20 mg/kg gastric lavage): 2.3
CC(=O)Nc1ccc(NCc2ccc(F)cc2)cc1 [Compound K2] | 1.50 ± 0.08 | −3.0 ± 2.0 | 
C=CCN(Cc1ccc(F)cc1)c1ccc2[nH]c(=O)[nH]c2c1 [Compound K34, 5-(N-parafluorobenzyl-N-allyl-imino)-benzimidazole-2-one] | 1.44 ± 0.16 |  | 
CC#CCN(Cc1ccc(F)cc1)c1ccc(NC(=O)OCC)c(NC(=O)OCC)c1 [Compound K23] | 1.44 ± 0.14 | −15.34 ± 3.8 | 
C#CCN(Cc1ccc(F)cc1)c1ccc(NC(=O)OCC)c(N)c1 [Compound K21.2HCl, ethyl 2-amino-4-(N-parafluorobenzyl-N-propargyl-imino)-aniline formate dihydrochloride] |  |  | anti-convulsive effect compared with retigabine (in words) [4]: superior anti-convulsive effect; effect in MES test (in words) [5]: comparable effect; exposure amount of metabolite retigabine in brain tissue relative to prototype drug [3, 7]: 4.6%; exposure amount of metabolite retigabine in plasma relative to prototype drug [3, 7]: 5.4%; Kp ([3]; male, KM, mouse, oral, 5 mg/kg gastric lavage): 2.4; Tmax ([3]; male, KM, mouse, plasma or brain tissue, oral, K21.2HCl 5 mg/kg gastric lavage, read-out: time to reach the maximum concentrations (Tmax) of prototype drug in plasma or brain tissue): 15 min; effect in PTZ test (in words) [6]: obviously inhibit the tonic seizures
CCC#CCN(Cc1ccc(F)cc1)c1ccc(NC(=O)OCC)c(NC(=O)OCC)c1 [Compound K24] | 1.2 ± 0.1 | −1.87 ± 2.5 | 
C=C(/C=C/CO)CN(Cc1ccc(F)cc1)c1ccc(NC(=O)OCC)c(NC(=O)OCC)c1 [Compound K32, ethyl 2-(ethoxycarbonyl-imino)-4-[N-parafluorobenzyl-N-1-(6-hydroxyl-2-alkenyl-3-hexylene)-imino]-aniline formate] | 1.76 ± 0.09 | −6.0 ± 1.5 | 
COC(=O)Nc1ccc(N(CC=C(C)C)Cc2ccc(F)cc2)cc1NC(=O)OC [Compound K31] | 1.36 ± 0.13 |  | 
C#CCN(Cc1ccc(F)cc1)c1ccc(NC(=O)OCC)cc1 [Compound K8] | 1.99 ± 0.37 | −7.3 ± 2.5 | 
C#CCN(Cc1cccc(F)c1)c1ccc(NC(=O)OC)cc1 [Compound K12] | 2.33 ± 0.17 | −21.1 ± 1.9 | 
C#CCN(Cc1ccc(F)c(F)c1)c1ccc(NC(=O)OC)cc1 [Compound K19] | 2.52 ± 0.23 | −14.9 ± 2.7 | 

SMILES | I/I0 (KCNQ channels) | ΔV1/2 (KCNQ channels) [mV] | further results
C=C(C)CN(Cc1ccc(F)cc1)c1ccc(NC(=O)OC(C)C)c(NC(=O)OC(C)C)c1 [Compound K30] | 1.57 ± 0.25 |  | 
C#CCN(c1cccc(NC(=O)OC)c1)C(C)c1ccc(F)cc1 (stereo not drawn) [Compound K16] | 1.47 ± 0.10 | −20.6 ± 4.5 | 
C#CCN(Cc1ccc(F)cc1)c1ccc(NC(=O)OC)c(F)c1 [Compound K15] | 2.09 ± 0.31 | −22.0 ± 1.5 | 
C#CCN(Cc1ccccc1F)c1ccc(NC(=O)OC)cc1 [Compound K13] | 2.31 ± 0.36 | −7.6 ± 1.9 | 
C=CCOC(=O)Nc1ccc(N(Cc2ccc(F)cc2)CC(C)C)cc1NC(=O)OCC=C [Compound K27] | 1.52 ± 0.17 |  | 
C#CCN(Cc1ccc(F)cc1)c1ccc2[nH]c(=O)[nH]c2c1 [Compound K25, 5-(N-parafluorobenzyl-N-propargyl-imino)-benzimidazole-2-one] | 1.8 ± 0.1 | −5.8 ± 1.7 | 
C=C(/C=C/CN)CN(Cc1ccc(F)cc1)c1ccc(NC(=O)OCC)c(NC(=O)OCC)c1 [Compound K39, ethyl 2-(ethoxycarbonyl-imino)-4-[N-parafluorobenzyl-N-1-(6-amino-2-alkenyl-3-hexylene)-imino]-aniline formate] | 1.03 ± 0.11 |  | 
C=C(C)CN(Cc1ccc(F)cc1)c1ccc(NC(=O)OC(C)(C)C)c(NC(=O)OC(C)(C)C)c1 [Compound K29] | 1.24 ± 0.10 |  | 
C#CCN(Cc1ccc(F)cc1)c1ccc(F)c(NC(=O)OC)c1 [Compound K10, methyl 2-fluoro-5-(N-parafluorobenzyl-N-propargyl-imino)-aniline formate] | 2.75 ± 0.31 | −18.7 ± 2.6 | 
CCOC(=O)Nc1ccc(N(CC2=CCCCC2)Cc2ccc(F)cc2)cc1NC(=O)OCC [Compound K38] | 0.16 ± 0.02 |  | 
C=C(C)CN(Cc1ccc(F)cc1)c1ccc(NC(=O)OC)c(NC(=O)OC)c1 [Compound K28] | 1.43 ± 0.05 |  | 
C=CCN(Cc1ccc(F)cc1)c1ccc(NC(=O)OCC)cc1 [Compound K7] | 1.35 ± 0.27 | −4.7 ± 2.0 | 
C#CCN(Cc1ccc(F)c(C(F)(F)F)c1)c1ccccc1NC(=O)OC [Compound K14] | 1.43 ± 0.04 | −14.7 ± 2.1 | 
CCOC(=O)Nc1ccc(N(CCCC(C)=O)Cc2ccc(F)cc2)cc1NC(=O)OCC [Compound K26] | 1.25 ± 0.07 |  | 
C#CCCOC(=O)Nc1ccc(N(CC#C)Cc2ccc(F)cc2)cc1N [Compound K33] |  | −36.8 ± 3.3 | 
C#CCN(Cc1ccc(F)cc1)c1ccc(NC(=O)OCC(C)C)cc1 [Compound K5] | 1.23 ± 0.08 | −14.3 ± 3.3 | 
